The values that follow come from patent US7012081B2, “Anthranyl amides and their use as medicaments” (Schering AG, priority 2000, dated 2006).

In series [1] the target is VEGFR II (KDR) (Homo sapiens, UniProt P35968). Nature of the series: Inhibition of the KDR kinase activity (33P-ATP / poly-(Glu4Tyr) phosphocellulose filter assay). As to conditions: substrate poly-(Glu4Tyr), 10 minutes at room temperature. It is filed as biochemical. As to the method:
• Stock solution A: 3 mmol of ATP in water, pH 7.0 (−70° C.) • Stock solution B: g-33P-ATP 1 mCi/100 μl • Stock solution C: poly-(Glu4 Tyr) 10 mg/ml in water Solution for Dilutions • Substrate solvent: 10 mmol of DTT, 10 mmol of manganese chloride, 100 mmol of magnesium chloride • Enzyme solution: 120 mmol of tris/HCl, pH 7.5, 10 μM of sodium vanadium oxide Sample Application 1 Inhibition of the KDR- and FLT-1 Kinase Activity in the Presence of the Compounds According to the Invention
In a microtiter plate (without protein binding) that tapers to a point, 10 μl of substrate mix (10 μl of volume of ATP stock solution A+25 μCi of g-33P-ATP (about 2.5 μl of stock solution B)+30 μl of poly-(Glu4Tyr) stock solution C+1.21 ml of substrate solvent), 10 μl of inhibitor solution (substances corresponding to the dilutions, 3% DMSO in substrate solvent as a control) and 10 μl of enzyme solution (11.25 μg of enzyme stock solution (KDR or FLT-1 kinase) are added at 4° C. in 1.25 ml of enzyme solution (dilute). It is thoroughly mixed and incubated for 10 minutes at room temperature. Then, 10 μl of stop solution (250 mmol of EDTA, pH 7.0) is added, mixed, and 10 μl of the solution is transferred to a P 81 phosphocellulose filter. Then, it is washed several times in 0.1 M phosphoric acid. The filter paper is dried, coated with Meltilex and measured in a microbeta counter. […]

VEGFR II (KDR), sequence (P35968 20-1356, species assumed): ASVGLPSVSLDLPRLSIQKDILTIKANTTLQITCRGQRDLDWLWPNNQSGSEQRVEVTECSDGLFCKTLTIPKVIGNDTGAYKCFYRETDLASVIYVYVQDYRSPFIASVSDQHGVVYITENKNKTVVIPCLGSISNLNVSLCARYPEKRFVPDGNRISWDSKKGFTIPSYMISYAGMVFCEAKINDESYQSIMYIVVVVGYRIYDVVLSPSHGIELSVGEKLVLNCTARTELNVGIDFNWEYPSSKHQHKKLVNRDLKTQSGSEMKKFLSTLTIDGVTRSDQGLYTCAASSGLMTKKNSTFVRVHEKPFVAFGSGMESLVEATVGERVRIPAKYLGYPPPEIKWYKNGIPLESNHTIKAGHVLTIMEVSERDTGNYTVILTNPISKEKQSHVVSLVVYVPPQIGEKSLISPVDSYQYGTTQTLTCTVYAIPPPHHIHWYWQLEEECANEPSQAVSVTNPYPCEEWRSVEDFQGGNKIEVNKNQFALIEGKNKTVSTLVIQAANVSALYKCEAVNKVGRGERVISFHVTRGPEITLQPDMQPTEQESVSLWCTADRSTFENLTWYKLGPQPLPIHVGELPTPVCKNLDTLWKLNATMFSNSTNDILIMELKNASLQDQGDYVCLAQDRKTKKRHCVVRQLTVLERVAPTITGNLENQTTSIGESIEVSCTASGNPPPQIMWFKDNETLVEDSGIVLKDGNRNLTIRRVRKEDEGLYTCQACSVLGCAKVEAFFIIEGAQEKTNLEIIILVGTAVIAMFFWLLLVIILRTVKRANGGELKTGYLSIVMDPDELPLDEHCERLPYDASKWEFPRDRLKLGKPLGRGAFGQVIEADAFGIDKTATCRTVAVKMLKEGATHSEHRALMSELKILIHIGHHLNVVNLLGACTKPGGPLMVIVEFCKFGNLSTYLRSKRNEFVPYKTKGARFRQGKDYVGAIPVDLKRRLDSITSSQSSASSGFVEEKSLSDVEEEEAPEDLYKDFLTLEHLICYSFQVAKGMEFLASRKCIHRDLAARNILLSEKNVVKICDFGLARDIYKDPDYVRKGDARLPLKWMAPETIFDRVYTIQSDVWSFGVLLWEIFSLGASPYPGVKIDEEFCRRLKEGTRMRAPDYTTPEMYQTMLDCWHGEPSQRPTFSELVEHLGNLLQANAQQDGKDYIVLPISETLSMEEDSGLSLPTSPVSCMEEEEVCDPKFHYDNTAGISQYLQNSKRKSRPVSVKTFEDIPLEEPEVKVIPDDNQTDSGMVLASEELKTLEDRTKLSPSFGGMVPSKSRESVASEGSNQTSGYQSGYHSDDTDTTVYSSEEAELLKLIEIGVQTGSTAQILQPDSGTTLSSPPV

By IC50 is commonly meant the concentration needed to halve the response being measured. The molecule `O=C1CCC(CNc2ccccc2C(=O)Nc2cc3ccccc3cn2)CC1` [Example 2.0] came in with an IC50 in series [1] of 20 nM. As a reminder, the melting point is the temperature, or range, at which the solid turns liquid. `O=C(Nc1cc2ccccc2cn1)c1ccccc1NCC1CCOCC1` [Example 1.1] showed a melting point of 140.4 °C. The molecule also had an IC50 in series [1] of 50 nM.
